Results reported in US20060069132A1, “Azolecarboxamide herbicides” (priority 2004, published 2006).

Experiments:
[1] = system: rice; experiment: Test B flooded paddy test; assay type: in vivo, Oryza sativa; details: 1000 g ai/ha, scale 0 to 100 (0 no effect, 100 complete control)
Summary of the method: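 Postemergence plants were sprayed with formulated test chemicals at 2 to 18 cm height (1- to 4-leaf stage); paddy species were grown to the 2-leaf stage. After 13 to 15 days in a greenhouse, injury was rated visually against untreated controls on a 0–100 scale (0 = no effect, 100 = complete control).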

[2] = system: blackgrass; experiment: Test B postemergence herbicide test; assay type: in vivo, Alopecurus myosuroides; details: postemergence
Summary of the method: (§1)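 Visual ratings, 0 (no effect) to 100 (complete control), made versus controls after 13–15 d greenhouse. Paddy plants treated at 2-leaf stage; postemergence plants at 1- to 4-leaf stage, 2–18 cm tall.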

[3] = system: ducksalad; experiment: Test B flooded paddy test; assay type: in vivo, Heteranthera limosa; details: 1000 g ai/ha, scale 0 to 100 (0 no effect, 100 complete control)
Summary of the method: as §1

[4] = system: barnyardgrass; experiment: Test B pre-/postemergence herbicide test; assay type: in vivo, Echinochloa crus-galli; details: for Plant response rating (0 to 100 scale), Barnyardgrass: 0 is no effect, preemergence; for Barnyardgrass plant response rating: postemergence
Summary of the method: (§2)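 Visual rating, 0 (no effect) to 100 (complete control), versus untreated controls after 13–15 d in greenhouse. Pre- and postemergence applications (postemergence plants 2–18 cm, 1–4 leaves); flooded paddy arm at 2-leaf stage. Compounds in non-phytotoxic solvent plus surfactant.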

[5] = system: pigweed; experiment: Test B pre-/postemergence herbicide test; assay type: in vivo, Amaranthus retroflexus; details: for Plant response rating (0 to 100 scale), Pigweed: 0 is no effect, 100 is complete control, preemergence; for Pigweed plant response rating: scale 0 (no effect) to 100 (complete control)
Summary of the method: (§3)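 Response was scored visually 13 to 15 days after treatment against untreated greenhouse controls, 0 meaning no effect and 100 complete control. Formulations (solvent mixture plus surfactant) went onto soil after planting, onto foliage of 1- to 4-leaf plants, and onto 2-leaf plants in a flooded paddy set including rice and barnyardgrass.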

[6] = system: wild oat; experiment: Test B postemergence herbicide test; assay type: in vivo, Avena fatua; details: scale 0 (no effect) to 100 (complete control)
Summary of the method: as §1

[7] = system: velvetleaf; experiment: Test B pre-/postemergence herbicide test; assay type: in vivo, Abutilon theophrasti; details: for Plant response rating (0 to 100 scale), Velvetleaf: 0 is no effect, 100 is complete control, preemergence; for Velvetleaf plant response rating: scale 0 (no effect) to 100 (complete control)
Summary of the method: as §3

[8] = system: giant foxtail; experiment: Test B pre-/postemergence herbicide test; assay type: in vivo, Setaria faberi; details: for Plant response rating (0 to 100 scale), Foxtail, Giant: 0 is no effect, preemergence; for Foxtail, Giant plant response rating: postemergence
Summary of the method: as §3

[9] = system: barnyardgrass; experiment: Test B flooded paddy test; assay type: in vivo, Echinochloa crus-galli; details: 1000 g ai/ha, scale 0 to 100 (0 no effect, 100 complete control)
Summary of the method: as §1

[10] = system: wheat; experiment: Test B postemergence herbicide test; assay type: in vivo, Triticum aestivum; set-up: key to Wheat plant response rating: 0 = no effect, 100 = complete control
Summary of the method: as §1

[11] = system: cocklebur; experiment: Test B pre-/postemergence herbicide test; assay type: in vivo, Xanthium strumarium; details: for Plant response rating (0 to 100 scale), Cocklebur: 0 is no effect, preemergence; for Cocklebur plant response rating: postemergence
Summary of the method: as §2

[12] = system: Surinam grass; experiment: Test B pre-/postemergence herbicide test; assay type: in vivo, Urochloa decumbens; details: for Plant response rating (0 to 100 scale), Surinam Grass: 0 is no effect, 100 is complete control, preemergence; for Surinam Grass plant response rating: scale 0 (no effect) to 100 (complete control)
Summary of the method: as §3

[13] = system: morningglory; experiment: Test B pre-/postemergence herbicide test; assay type: in vivo, Ipomoea coccinea; details: for Plant response rating (0 to 100 scale), Morningglory: 0 is no effect, 100 is complete control, preemergence; for Morningglory plant response rating: scale 0 (no effect) to 100 (complete control)
Summary of the method: as §2

[14] = system: small flower umbrella sedge; experiment: Test B flooded paddy test; assay type: in vivo, Cyperus difformis; details: 1000 g ai/ha, scale 0 to 100 (0 no effect, 100 complete control)
Summary of the method: as §1

[15] = system: corn; experiment: Test B pre-/postemergence herbicide test; assay type: in vivo, Zea mays; details: for Plant response rating (0 to 100 scale), Corn: 0 is no effect, preemergence; for Corn plant response rating: postemergence
Summary of the method: as §3

[16] = system: large crabgrass; experiment: Test B pre-/postemergence herbicide test; assay type: in vivo, Digitaria sanguinalis; details: for Plant response rating (0 to 100 scale), Crabgrass, Large: 0 is no effect, preemergence; for Crabgrass, Large plant response rating: postemergence
Summary of the method: as §3

[17] = system: lambsquarters; experiment: Test B pre-/postemergence herbicide test; assay type: in vivo, Chenopodium album; details: scale 0 (no effect) to 100 (complete control)
Summary of the method: as §3

[18] = 125 g ai/ha, visual rating, scale 0 (no effect) to 100 (complete control)
[19] = 500 g ai/ha, scale 0 to 100, 0 is no effect, 100 is complete control
[20] = 125 g ai/ha, 100 is complete control
[21] = 125 g ai/ha, visual rating, postemergence
[22] = 125 g ai/ha, visual rating, scale 0 (no effect) to 100 (complete control), postemergence
[23] = 500 g ai/ha, scale 0 to 100, 0 no effect, 100 complete control, preemergence
[24] = Postemergence, 500 g ai/ha, scale 0 (no effect) to 100 (complete control)

Row | Structure (SMILES) | Rice plant response rating [1] | Blackgrass plant response rating [2, 18] | Blackgrass plant response rating [2, 19] | Ducksalad plant response rating [3] | Plant response rating (0 to 100 scale), Barnyardgrass [4, 20] | Barnyardgrass plant response rating [4, 18] | Barnyardgrass plant response rating [4, 19] | Plant response rating (0 to 100 scale), Pigweed ([5]; 125 g ai/ha) | Pigweed plant response rating [5, 21] | Pigweed plant response rating ([5]; Postemergence, 500 g ai/ha) | Oat, Wild plant response rating [6, 21] | Oat, Wild plant response rating ([6]; Postemergence, 500 g ai/ha) | Plant response rating (0 to 100 scale), Velvetleaf ([7]; 125 g ai/ha) | Velvetleaf plant response rating [7, 21] | Velvetleaf plant response rating ([7]; Postemergence, 500 g ai/ha) | Plant response rating (0 to 100 scale), Foxtail, Giant [8, 20] | Foxtail, Giant plant response rating [8, 18] | Foxtail, Giant plant response rating [8, 19] | Barnyardgrass plant response rating [9] | Wheat plant response rating [10, 22] | also measured
1 | CCc1nn(C(C)(C)CC)nc1C(=O)Nc1cc(C(=O)N2CC=CC2)ccc1F [Compound 371] | 40 | 0 | 20 | 90 | 0 | 0 | 0 | 0 | 10 | 30 | 0 | 10 | 0 | 10 | 20 | 10 | 10 | 20 | 30 | 0 | Wheat plant response rating [10, 23]: 0; Wheat plant response rating [10, 24]: 10; Plant response rating (0 to 100 scale), Cocklebur [11, 20]: 0; Cocklebur plant response rating [11, 18]: 20; Cocklebur plant response rating [11, 19]: 30; Plant response rating (0 to 100 scale), Surinam Grass ([12]; 125 g ai/ha): 10; Surinam Grass plant response rating [12, 21]: 0; Surinam Grass plant response rating ([12]; Postemergence, 500 g ai/ha): 10; Plant response rating (0 to 100 scale), Morningglory ([13]; 125 g ai/ha): 0; Morningglory plant response rating [13, 21]: 40; Morningglory plant response rating ([13]; Postemergence, 500 g ai/ha): 70; Sedge, Umbrella plant response rating [14]: 60; Plant response rating (0 to 100 scale), Corn [15, 20]: 0; Corn plant response rating [15, 18]: 10; Corn plant response rating [15, 19]: 10; Plant response rating (0 to 100 scale), Crabgrass, Large [16, 20]: 10; Crabgrass, Large plant response rating [16, 18]: 0; Crabgrass, Large plant response rating [16, 19]: 10; Lambsquarters plant response rating [17, 21]: 40; Lambsquarters plant response rating ([17]; Postemergence, 500 g ai/ha): 70
2 | CCc1nn(C(C)(C)CC)nc1C(=O)Nc1cccc(OC(F)(F)F)c1 [Compound 374] | 20 | 10 | 30 | 50 | 0 | 10 | 20 | 30 | 30 | 70 | 20 | 40 | 0 | 10 | 20 | 10 | 20 | 20 | 40 | 0 | Wheat plant response rating [10, 23]: 0; Wheat plant response rating [10, 24]: 20; Plant response rating (0 to 100 scale), Cocklebur [11, 20]: 0; Cocklebur plant response rating [11, 18]: 0; Cocklebur plant response rating [11, 19]: 30; Plant response rating (0 to 100 scale), Surinam Grass ([12]; 125 g ai/ha): 10; Surinam Grass plant response rating [12, 21]: 10; Surinam Grass plant response rating ([12]; Postemergence, 500 g ai/ha): 20; Plant response rating (0 to 100 scale), Morningglory ([13]; 125 g ai/ha): 0; Morningglory plant response rating [13, 21]: 20; Morningglory plant response rating ([13]; Postemergence, 500 g ai/ha): 20; Sedge, Umbrella plant response rating [14]: 0; Plant response rating (0 to 100 scale), Corn [15, 20]: 0; Corn plant response rating [15, 18]: 10; Corn plant response rating [15, 19]: 20; Plant response rating (0 to 100 scale), Crabgrass, Large [16, 20]: 0; Crabgrass, Large plant response rating [16, 18]: 20; Crabgrass, Large plant response rating [16, 19]: 20; Lambsquarters plant response rating [17, 21]: 10; Lambsquarters plant response rating ([17]; Postemergence, 500 g ai/ha): 70
